Assay results from EP0908457B1, “3-(1,2-benzisothiazol- and isoxazol-5-Y1)-2,4(1H,3H)-pyrimidinedione or thione and 3-(1,2-benzisothiazol- and isoxazol-5-y1)-4(3H)-pyrimidinone or thione herbicidal agents” (BASF AKTIENGESELLSCHAFT, priority 1997, dated 1999).

Legend:
[1] = system: Cyperus serotinus, Rottb.; experiment: Preemergence weed control under flooded paddy conditions, CYPSE (Flatsedge); format: in vivo; conditions: rated three to four weeks after treatment; on herbicidal effect rating, CYPSE: meaning of each grade not given here
[2] = system: Monochoria vaginalis, Presl.; experiment: Preemergence weed control under flooded paddy conditions, MOOVA (Monochoria); format: in vivo; conditions: flooded paddy, rated three to four weeks after treatment; on herbicidal effect rating, MOOVA: meaning of each grade not given here
[3] = system: Oryza sativa, (L.) Tebonnet; experiment: Rice tolerance to post-transplant applications under flooded paddy conditions (Example 187), ORYSAT (Rice, Tebonnet); conditions: rated three to four weeks after treatment; on herbicidal effect rating ORYSAT: meaning of each grade not given here
[4] = system: Echinochloa oryzoides (Ard.) Fritsch.; experiment: Preemergence weed control under flooded paddy conditions, ECHORC (Watergrass (Calif.)); format: in vivo; conditions: flooded paddy, rated three to four weeks after treatment; on herbicidal effect rating, ECHORC: meaning of each grade not given here
[5] = system: Sagittaria pygmaea, L.; experiment: Preemergence weed control under flooded paddy conditions, SAGPY (Arrowhead (Pygmaea)); format: in vivo; conditions: flooded paddy, rated three to four weeks after treatment; on herbicidal effect rating, SAGPY: meaning of each grade not given here
[6] = system: Cyperus iria; experiment: Preemergence weed control under flooded paddy conditions, CYPIR (Rice Flatsedge); format: in vivo; conditions: flooded paddy, rated three to four weeks after treatment; on herbicidal effect rating, CYPIR: meaning of each grade not given here
[7] = Rate 0.0320 kg/ha, preemergence
[8] = Rate 0.0620 kg/ha, preemergence
[9] = Rate 0.1250 kg/ha, preemergence
[10] = Rate 0.2500 kg/ha, preemergence
[11] = Rate 0.5000 kg/ha, preemergence
[12] = Rate 0.0320 kg/ha, preemergence weeds
[13] = Rate 0.0620 kg/ha, preemergence weeds
[14] = Rate 0.1250 kg/ha, preemergence weeds
[15] = Rate 0.2500 kg/ha, preemergence weeds

Cn1c(C(F)(F)F)cc(=O)n(-c2ccc3snc(C(=O)NS(=O)(=O)c4ccc5ccccc5c4)c3c2)c1=O [Example 357, 1,2-Benzisothiazole-3-carboxamide, 5-[3,6-dihydro-3-methyl-2,6-dioxo-4-(trifluoromethyl)-1(2H)-pyrimidinyl]-N-(2-naphthylsulfonyl)-]
herbicidal effect rating, CYPSE [1, 7]: 0.0 | herbicidal effect rating, CYPSE [1, 8]: 0.0 | herbicidal effect rating, CYPSE [1, 9]: 0.0 | herbicidal effect rating, CYPSE [1, 10]: 0.0 | herbicidal effect rating, MOOVA [2, 7]: 9.0 | herbicidal effect rating, MOOVA [2, 8]: 9.0 | herbicidal effect rating, MOOVA [2, 9]: 9.0 | herbicidal effect rating, MOOVA [2, 10]: 9.0 | herbicidal effect rating ORYSAT ([3]; Rate 0.0320 kg/ha): 2.0 | herbicidal effect rating ORYSAT ([3]; Rate 0.0620 kg/ha): 2.0 | herbicidal effect rating ORYSAT ([3]; Rate 0.1250 kg/ha): 2.0 | herbicidal effect rating ORYSAT ([3]; Rate 0.2500 kg/ha): 3.0 | herbicidal effect rating, ECHORC [4, 7]: 4.0 | herbicidal effect rating, ECHORC [4, 8]: 5.0 | herbicidal effect rating, ECHORC [4, 9]: 5.0 | herbicidal effect rating, ECHORC [4, 10]: 7.0 | herbicidal effect rating, SAGPY [5, 7]: 0.0 | herbicidal effect rating, SAGPY [5, 8]: 0.0 | herbicidal effect rating, SAGPY [5, 9]: 0.0 | herbicidal effect rating, SAGPY [5, 10]: 4.0 | herbicidal effect rating, CYPIR [6, 7]: 0.0 | herbicidal effect rating, CYPIR [6, 8]: 0.0 | herbicidal effect rating, CYPIR [6, 9]: 2.0 | herbicidal effect rating, CYPIR [6, 10]: 6.0

Cn1c(C(F)(F)F)cc(=O)n(-c2ccc3snc(/C=C/CBr)c3c2)c1=O [Example 360, 2,4(1H,3H)-Pyrimidinedione, 3-[3-(3-bromopropenyl)-1,2-benzisothiazol-5-yl]-1-methyl-6-(trifluoromethyl)-, (E)-]
herbicidal effect rating, CYPSE [1, 7]: 0.0 | herbicidal effect rating, CYPSE [1, 8]: 0.0 | herbicidal effect rating, CYPSE [1, 9]: 0.0 | herbicidal effect rating, CYPSE [1, 10]: 9.0 | herbicidal effect rating, MOOVA [2, 7]: 4.5 | herbicidal effect rating, MOOVA [2, 8]: 4.5 | herbicidal effect rating, MOOVA [2, 9]: 4.5 | herbicidal effect rating, MOOVA [2, 10]: 9.0 | herbicidal effect rating, MOOVA [2, 11]: 9.0 | herbicidal effect rating ORYSAT ([3]; Rate 0.0320 kg/ha): 1.0 | herbicidal effect rating ORYSAT ([3]; Rate 0.0620 kg/ha): 2.0 | herbicidal effect rating ORYSAT ([3]; Rate 0.1250 kg/ha): 3.5 | herbicidal effect rating ORYSAT ([3]; Rate 0.2500 kg/ha): 9.0 | herbicidal effect rating ORYSAT ([3]; Rate 0.5000 kg/ha): 9.0 | herbicidal effect rating, ECHORC [4, 7]: 0.0 | herbicidal effect rating, ECHORC [4, 8]: 2.0 | herbicidal effect rating, ECHORC [4, 9]: 5.0 | herbicidal effect rating, ECHORC [4, 10]: 7.5 | herbicidal effect rating, ECHORC [4, 11]: 9.0 | herbicidal effect rating, SAGPY [5, 7]: 1.5 | herbicidal effect rating, SAGPY [5, 8]: 4.5 | herbicidal effect rating, SAGPY [5, 9]: 4.5 | herbicidal effect rating, SAGPY [5, 10]: 9.0 | herbicidal effect rating, SAGPY [5, 11]: 9.0 | herbicidal effect rating, CYPIR [6, 7]: 0.0 | herbicidal effect rating, CYPIR [6, 8]: 2.5 | herbicidal effect rating, CYPIR [6, 9]: 9.0 | herbicidal effect rating, CYPIR [6, 10]: 9.0 | herbicidal effect rating, CYPIR [6, 11]: 9.0

CN(C)S(=O)(=O)NC(=O)c1nsc2ccc(-n3c(=O)cc(C(F)(F)F)n(C)c3=O)cc12 [Example 507, 1,2-Benzisothiazole-3-carboxamide, 5-[3,6-dihydro-3-methyl-2,6-dioxo-4-(trifluoromethyl)-1(2H)-pyrimidinyl]-N-(dimethylsulfamoyl)-]
CYPSE herbicidal rating ([1]; 0.0320 kg/ha, preemergence): 0.0 | MOOVA herbicidal rating ([2]; 0.0320 kg/ha, preemergence): 9.0 | MOOVA herbicidal rating ([2]; 0.0620 kg/ha, preemergence): 9.0 | MOOVA herbicidal rating ([2]; 0.1250 kg/ha, preemergence): 9.0 | MOOVA herbicidal rating ([2]; 0.2500 kg/ha, preemergence): 9.0 | ORYSAT herbicidal rating (rice tolerance) ([3]; 0.0320 kg/ha): 3.0 | ORYSAT herbicidal rating (rice tolerance) ([3]; 0.0620 kg/ha): 5.0 | ORYSAT herbicidal rating (rice tolerance) ([3]; 0.1250 kg/ha): 7.0 | ORYSAT herbicidal rating (rice tolerance) ([3]; 0.2500 kg/ha): 5.0 | ECHORC herbicidal rating ([4]; 0.0320 kg/ha, preemergence): 2.0 | ECHORC herbicidal rating ([4]; 0.0620 kg/ha, preemergence): 2.0 | ECHORC herbicidal rating ([4]; 0.1250 kg/ha, preemergence): 4.0 | ECHORC herbicidal rating ([4]; 0.2500 kg/ha, preemergence): 7.0 | SAGPY herbicidal rating ([5]; 0.0320 kg/ha, preemergence): 7.0 | SAGPY herbicidal rating ([5]; 0.0620 kg/ha, preemergence): 9.0 | SAGPY herbicidal rating ([5]; 0.1250 kg/ha, preemergence): 9.0 | SAGPY herbicidal rating ([5]; 0.2500 kg/ha, preemergence): 9.0 | CYPIR herbicidal rating ([6]; 0.0320 kg/ha, preemergence): 5.0 | CYPIR herbicidal rating ([6]; 0.0620 kg/ha, preemergence): 6.0 | CYPIR herbicidal rating ([6]; 0.1250 kg/ha, preemergence): 9.0 | CYPIR herbicidal rating ([6]; 0.2500 kg/ha, preemergence): 9.0

Cc1ccc(OCC(=O)NS(=O)(=O)c2sc3ccc(Cl)cc3c2C)c(-c2nsc3ccc(-n4c(=O)cc(C(F)(F)F)n(C)c4=O)cc23)c1 [Example 290, Acetamide, N-[(5-chloro-3-methylbenzo[b]thien-2-yl)sulfonyl]-2-{{2-{5-[3,6-dihydro-3-methyl-2,6-dioxo-4-(trifluoromethyl)-1(2H)-pyrimidinyl]-1,2-benzisothiazol-3-yl}-p-tolyl}oxy}-]
CYPSE herbicidal effect rating [1, 7]: 0.0 | CYPSE herbicidal effect rating [1, 8]: 0.0 | CYPSE herbicidal effect rating [1, 9]: 0.0 | CYPSE herbicidal effect rating [1, 10]: 0.0 | MOOVA herbicidal effect rating [2, 7]: 0.0 | MOOVA herbicidal effect rating [2, 8]: 7.0 | MOOVA herbicidal effect rating [2, 9]: 7.0 | MOOVA herbicidal effect rating [2, 10]: 7.0 | ORYSAT herbicidal effect rating ([3]; Rate 0.0320 kg/ha): 0.0 | ORYSAT herbicidal effect rating ([3]; Rate 0.0620 kg/ha): 0.0 | ORYSAT herbicidal effect rating ([3]; Rate 0.1250 kg/ha): 0.0 | ORYSAT herbicidal effect rating ([3]; Rate 0.2500 kg/ha): 0.0 | ECHORC herbicidal effect rating [4, 7]: 0.0 | ECHORC herbicidal effect rating [4, 8]: 0.0 | ECHORC herbicidal effect rating [4, 9]: 3.0 | ECHORC herbicidal effect rating [4, 10]: 7.0 | SAGPY herbicidal effect rating [5, 7]: 0.0 | SAGPY herbicidal effect rating [5, 8]: 0.0 | SAGPY herbicidal effect rating [5, 9]: 0.0 | SAGPY herbicidal effect rating [5, 10]: 0.0 | CYPIR herbicidal effect rating [6, 7]: 6.0 | CYPIR herbicidal effect rating [6, 8]: 6.0 | CYPIR herbicidal effect rating [6, 9]: 6.0 | CYPIR herbicidal effect rating [6, 10]: 6.0

Cc1ccc(OC(C)(C)C(=O)NS(C)(=O)=O)c(-c2nsc3ccc(-n4c(=O)cc(C(F)(F)F)n(C)c4=O)cc23)c1 [Example 576, Propionamide, 2-{{2-{5-[3,6-dihydro-3-methyl-2,6-dioxo-4-(trifluoromethyl)-1(2H)-pyrimidinyl]-1,2-benzisothiazol-3-yl}-p-tolyl}oxy}-2-methyl-N-(methylsulfonyl)-]
herbicidal effect rating, CYPSE [1, 7]: 0.0 | herbicidal effect rating, CYPSE [1, 8]: 0.0 | herbicidal effect rating, CYPSE [1, 9]: 0.0 | herbicidal effect rating, CYPSE [1, 10]: 4.0 | herbicidal effect rating, MOOVA [2, 7]: 7.0 | herbicidal effect rating, MOOVA [2, 8]: 9.0 | herbicidal effect rating, MOOVA [2, 9]: 9.0 | herbicidal effect rating, MOOVA [2, 10]: 9.0 | herbicidal effect rating ORYSAT ([3]; Rate 0.0320 kg/ha): 4.0 | herbicidal effect rating ORYSAT ([3]; Rate 0.0620 kg/ha): 7.0 | herbicidal effect rating ORYSAT ([3]; Rate 0.1250 kg/ha): 7.0 | herbicidal effect rating ORYSAT ([3]; Rate 0.2500 kg/ha): 9.0 | herbicidal effect rating, ECHORC [4, 7]: 6.0 | herbicidal effect rating, ECHORC [4, 8]: 7.0 | herbicidal effect rating, ECHORC [4, 9]: 7.0 | herbicidal effect rating, ECHORC [4, 10]: 9.0 | herbicidal effect rating, SAGPY [5, 7]: 0.0 | herbicidal effect rating, SAGPY [5, 8]: 0.0 | herbicidal effect rating, SAGPY [5, 9]: 3.0 | herbicidal effect rating, SAGPY [5, 10]: 4.0 | herbicidal effect rating, CYPIR [6, 7]: 0.0 | herbicidal effect rating, CYPIR [6, 8]: 3.0 | herbicidal effect rating, CYPIR [6, 9]: 3.0 | herbicidal effect rating, CYPIR [6, 10]: 5.0

CC(O)c1nsc2ccc(-n3c(=O)cc(C(F)(F)F)n(C)c3=O)cc12 (centres unmarked) [Example 308, 2,4(1H,3H)-Pyrimidinedione, 3-[3-(1-hydroxyethyl)-1,2-benzisothiazol-5-yl]-1-methyl-6-(trifluoromethyl)-]
herbicidal effect rating, CYPSE [1, 12]: 0.0 | herbicidal effect rating, CYPSE [1, 13]: 0.0 | herbicidal effect rating, CYPSE [1, 14]: 3.0 | herbicidal effect rating, CYPSE [1, 15]: 9.0 | herbicidal effect rating, MOOVA [2, 12]: 0.0 | herbicidal effect rating, MOOVA [2, 13]: 0.0 | herbicidal effect rating, MOOVA [2, 14]: 0.0 | herbicidal effect rating, MOOVA [2, 15]: 0.0 | herbicidal effect rating ORYSAT ([3]; Rate 0.0320 kg/ha): 5.0 | herbicidal effect rating ORYSAT ([3]; Rate 0.0620 kg/ha): 5.0 | herbicidal effect rating ORYSAT ([3]; Rate 0.1250 kg/ha): 6.0 | herbicidal effect rating ORYSAT ([3]; Rate 0.2500 kg/ha): 7.0 | herbicidal effect rating, ECHORC [4, 12]: 5.0 | herbicidal effect rating, ECHORC [4, 13]: 5.0 | herbicidal effect rating, ECHORC [4, 14]: 6.0 | herbicidal effect rating, ECHORC [4, 15]: 9.0 | herbicidal effect rating, SAGPY [5, 12]: 0.0 | herbicidal effect rating, SAGPY [5, 13]: 0.0 | herbicidal effect rating, SAGPY [5, 14]: 3.0 | herbicidal effect rating, SAGPY [5, 15]: 9.0 | herbicidal effect rating, CYPIR [6, 12]: 0.0 | herbicidal effect rating, CYPIR [6, 13]: 0.0 | herbicidal effect rating, CYPIR [6, 14]: 0.0 | herbicidal effect rating, CYPIR [6, 15]: 0.0
